Data published in patent publication US10939692B2, “Method for culturing aquatic animals with aspartyl-dipeptides” (Cysal GmbH, priority 2015, dated 2021).

What was measured:
Type in all cases: in vivo
Clarias gariepinus = assay: Aquaculture screening experiment, African catfish growth on arginine-limited basal diet; details: after four months
Text: (§1) Nearly all of the […] species relevant to aquaculture belong to three supra-orders: Ostariophysi ([…], catfish, and allies), Protacanthopterygii (e.g. pike, trouts and salmon), and Acanthopterygii (around 50% of all fish species, including all […], flatfish, tuna, etc.). In order to cover as much of the phylogenetic range as possible, fish species were chosen from each of these supra-orders (Ostariophysi; Clarias gariepinus, Protacanthopterygii; Oncorhychus mykiss, Acanthopterygii; Oreochromis niloticus). Additionally, kuruma shrimp (Marsupenaeus japonicus) was chosen as a representative species of crustacean due to its significance in the high-end market. At the end of the experiment, the individual weights were recorded and the data analyzed statistically. All experiments started with young fry or postlarvae. All species except trout were housed during the experiments in parallel recirculation systems of fresh water. Marsupenaeus japonicus shrimp were maintained in seawater. Oreochromis niloticus and Clarias gariepinus were housed in 200-L tanks filtered by a commercial pond filter. Trout were housed in a smaller system composed of 70-l tanks connected in series to account for the species' higher oxygen demand and preference for stronger current. Water quality (oxygen levels, nitrite, and nitrate) was monitored weekly. Partial water replacements were performed if the desired levels were exceeded. (<3 mg O2/l, detectable nitrite, >25 mg/l nitrate). In order to examine the efficiency of dipeptide products after as feed supplements for aquaculture, β-L-aspartyl-arginine as obtained in Example 1 was used in combination with basal arginine-limited diets. The latter diets were supplemented with the said dipeptide products to a concentration of 1.25 or 2.5% (wt/wt), or with corresponding isonitrogenous concentrations of an aspartic acid-arginine mixture (to determine the effect of free amino acids alone). Basal diets were formulated from individual components in common use in the aquaculture feed industry to ensure realistic conditions. […]

Oncorhynchus mykiss = assay: Aquaculture screening experiment, trout growth on arginine-limited basal diet; details: after four months
Text: as §1

Oreochromis niloticus = assay: Aquaculture screening experiment, Tilapia growth on arginine-limited basal diet; details: after two months
Text: as §1, with “[…] Basal diet composition for Tilapia and Kuruma shrimp contained a calculated arginine content of about 1.35% (of diet) which is lower than” for “In order to examine”, “minimum requirements” for “efficiency”, “both Tilapia and Kuruma shrimp: corn 40%, soybean meal 21%, rice polishings 14%, gluten 11%, wheat bran 5%, herring meal 5%, monocalcium phosphate 0.8%, limestone 0.7%, L-lysine HCl 0.7%, fish oil 0.5%, vitamin mineral premix 0.3%, sodium bicarbonate 0.15%, salt 0.15%, pellet binder 0.05%.” for “dipeptide products after as feed supplements for aquaculture, β-L-aspartyl-arginine as obtained in Example 1 was used in combination with basal arginine-limited diets. The latter diets were supplemented with the said dipeptide products to a concentration of 1.25 or 2.5% (wt/wt), or with corresponding isonitrogenous concentrations of an aspartic acid-arginine mixture (to determine the effect of free amino acids alone). Basal diets were formulated from individual components in common use in the aquaculture feed industry to ensure realistic conditions.”

Marsupenaeus japonicus = assay: Aquaculture screening experiment, kuruma shrimp growth on arginine-limited basal diet; details: after two months
Text: Nearly all of the […] species relevant to aquaculture belong to three supra-orders: Ostariophysi ([…], catfish, and allies), Protacanthopterygii (e.g. pike, trouts and salmon), and Acanthopterygii (around 50% of all fish species, including all […], flatfish, tuna, etc.). In order to cover as much of the phylogenetic range as possible, fish species were chosen from each of these supra-orders (Ostariophysi; Clarias gariepinus, Protacanthopterygii; Oncorhychus mykiss, Acanthopterygii; Oreochromis niloticus). Additionally, kuruma shrimp (Marsupenaeus japonicus) was chosen as a representative species of crustacean due to its significance in the high-end market. At the end of the experiment, the individual weights were recorded and the data analyzed statistically. All experiments started with young fry or postlarvae. […] Water quality (oxygen levels, nitrite, and nitrate) was monitored weekly. […] Basal diet composition for Tilapia and Kuruma shrimp contained a calculated arginine content of about 1.35% (of diet) which is lower than the minimum requirements of both Tilapia and Kuruma shrimp: corn 40%, soybean meal 21%, rice polishings 14%, gluten 11%, wheat bran 5%, herring meal 5%, monocalcium phosphate 0.8%, limestone 0.7%, L-lysine HCl 0.7%, fish oil 0.5%, vitamin mineral premix 0.3%, sodium bicarbonate 0.15%, salt 0.15%, pellet binder 0.05%. […]

[1] = test system: Atlantic salmon (Salmo salar L.); assay: Salmon nutrition experiment (bioavailability, arginine retention, growth, safety)
Text: The objective of the experiment was to examine the in vivo bioavailability of the above described “β-L-aspartyl-R” dipeptides in fish for the first time and consequently to determine their applicability as a substitute of free amino acids sources in Atlantic salmon (Salmo salar L.) nutrition. Therefore, varying supplementation levels of β-L-aspartyl-L-arginine in contrast to a mixture of free amino acids L-arginine and L-aspartic acid were compared.
315 Atlantic salmon (96.33 g±11.47 g; Danish Salmon AS, Hirtshals, DK) were acclimatized for 14 d in the experimental rearing system. The tanks of the system were part of a recirculation system (3.5 m^3 water volume, turnover rate 2 h^−1). The water purification system consisted of a mechanical filter, a moving bed filter, and a protein skimmer. Water quality parameters were maintained within a safe range for the fish (7.2-7.6 pH; GMH 3530, Digital pH-/mV-/Thermometer, Greisinger electronic, D; 22.5±0.3° C., 8.5±0.4 mg/l O2; Handy Polaris; Oxy-Guard International A/S, Birkerod, Denmark; <0.4 mg/l NH4—N; <0.24 mg/l NO2—N; Microquant test kit for NH4 and NO2; Merck KgaA, Darmstadt, Germany). The light conditions were set to 14 h/10 h light/dark cycle. During acclimatization fish were fed a commercial salmon feed (Aller Gold 4 mm; AllerAqua A/S, Christiansfeld, Denmark). The fish were reared in 150 l aquaria. Triplicate fish groups (3×15) were fed to apparent satiation twice a day over a period of 10 weeks.
In order to fulfill the nutritional demands of Atlantic salmon (except for arginine content), the different concentrations of the test substances were added to a basal diet which was produced with the following common ingredients used for fish nutrition: Fish meal (Clupea sp.) 9.91%, Blood meal 1.93%, Casein 3.05%, Corn gluten 20.80%, Wheat gluten 22.09%, Biolysine™ 1.48%, Wheat starch 25.43%, Fish oil 11.13%, Ca2PO4 0.46%, Vit/min premix 0.93%, TiO2 0.93%, and Carboxymethyl cellulose ad 100% (after adding the test supplements). The experiment was carried out with the resulting 7 dietary treatments:
Samples of all experimental groups were analyzed for arginine retention in the lab of LUFA in Kiel. […] Crude protein content (N×6.25) was determined by the Kjeldahl method, crude lipid content after hydrolysis with hydrochloric acid followed by a petroleum ether extraction using a Soxhlet extraction system, DM after drying at 103° C. until constant weight, and ash content after 4 h incineration at 550° C. in a combustion oven (P300; Nabertherm, Lilienthal, Germany). Furthermore, gross energy was measured in a bomb calorimeter (C 200; IKA, Staufen, Germany).
The statistical analyses were performed using SPSS 21.0 for Windows (SPSS Inc., Chicago, U.S.). […] Data were analyzed for variance homogeneity by Levene (p<0.05). […]

## N=C(N)NCCC[C@H](NC(=O)C[C@H](N)C(=O)O)C(=O)O [Asp-Arg, β-L-aspartyl-L-arginine]
Clarias gariepinus; 1.25% (wt/wt) supplement in basal diet
  mean (wt in g): 6.63 g
Clarias gariepinus; 2.5% (wt/wt) supplement in basal diet
  mean (wt in g): 8.42 g
Clarias gariepinus; addition of dipeptides
  average final weight, % of the control: around 144 % of the control
Oncorhynchus mykiss; 1.25% supplement in basal diet
  mean (wt in g): 13.63 g
Oncorhynchus mykiss; 2.5% supplement in basal diet
  mean (wt in g): 15.33 g
Oncorhynchus mykiss; feed containing 2.5% dipeptides
  average final weight, % of the control: around 115 % of the control
Oreochromis niloticus; 1.25% supplement in basal diet
  mean (wt in g): 1.84 g
Oreochromis niloticus; 2.5% supplement in basal diet
  mean (wt in g): 2.03 g
Oreochromis niloticus; feed supplemented with 2.5% dipeptide
  final weight, % of the control: over 120 % of the control
Marsupenaeus japonicus; 1.25%
  average weight versus amino acid feeding and control: higher than that of the amino acid feeding and that of the control group
Marsupenaeus japonicus; 1.25% supplement in basal diet, average weight
  mean: 0.35 g
[1]; Atlantic salmon, 0.2-0.6% in diet, 10 weeks
  safety (mortalities, behavior, postmortem inspection, tissue and blood analysis): safe for fish
[1]; Atlantic salmon, 0.6% supplementation, 10 weeks (FIG. 1)
  weight gain at the highest level of supplementation: not seen
[1]; Atlantic salmon, 10 weeks, compared to the free amino acid groups
  whole body protein level: higher body protein level
[1]; in vivo
  bioavailability of the dipeptide form versus the free form: five-fold better
